The subject of one assay is MV4;11 cells. As to the kind of experiment: MV4;11 in vitro inhibition of proliferation assay (CellTiter-Glo, 72 hours). The class given is cell-based. Particulars: Homo sapiens, MV4-11, 72 h, IC50 class, read-out: Inhibitory activity of cell proliferation MV4;11. An excerpt:
Biological Test Example 2: MV4;11 In Vitro Inhibition of Proliferation Assay
The MV4;11 cell lines were purchased from the cell bank of the Chinese Academy of Sciences, IMDM medium (Gibco, catalog number 12440), fetal bovine serum (Gibco, catalog number 10099141C), penicillin-streptomycin antibiotics (Gibco, catalog number 15140122), DMSO (Sigma, catalog number D2650), Celltiter-Glo kit (CTG) (Promega, catalog number G7573), 384-well clear flat-bottom black cell culture plate (Corning, catalog number 3764), D300e digital dispenser (Tecan, catalog number D300e), SpectraMax i3x microplate reader (MOLECULAR DEVICES, catalog number i3x)
MV4;11 cell was cultivated in IMDM, 10% fetal bovine serum, 1% penicillin-streptomycin antibiotics, and cell density was kept less than 1.0*10E6 cells per ml to ensure that it was always in logarithmic growth phase. Cell viability was greater than 95%.
The compounds to be tested was diluted by 3 times from 10 uM with DMSO to 9 concentrations. 60 nl diluted compound was added to the cell culture plate and three duplicates were set up.
The prepared MV4;11 cell suspension was added to the 384-well plate, and 20 microliters of cell suspension was added per well, i.e., each well contained 2000 MV4;11 cells, of which the final concentration of DMSO was 0.3%. The cell culture plate was placed in 37° C. and incubated in a 5% carbon dioxide incubator for 72 hours.
20 μL of Promega CellTiter-Glo reagent was added to per well, and the plate was incubated at room temperature for 10 minutes when the luminescence signals were stable. SpectraMax i3x microplate reader was used to read signals.
The original data was converted into inhibition rate, and the IC50 value (half inhibition concentration) of the compound was determined by fitting the nonlinear four-parameter curve.
As to `CCc1nc2c(N)ncc(-c3cnn(C4C[C@H]5CC[C@@H](C4)N5C)c3)c2nc1N[C@@H]1CC[C@H](O)C1` (single isomer, unassigned) [Compound 164], the IC50 is 10 to 100 nM.
On to `CCc1nc2c(N)ncc(-c3cnn(C4CCC(C)(O)CC4)c3)c2nc1N[C@@H]1CC[C@H](O)C1` (single isomer, unassigned) [Compound 284], for which the IC50 is no more than 10 nM.
Consider `CCc1nc2c(N)ncc(-c3ccc(N4CCC(N5CCN(C)CC5)CC4)c(OC)c3)c2nc1NC1CCC(O)CC1` (stereo not drawn) [Compound 82], for which the IC50 fell in the range of 10 to 100 nM.
Still for that read-out and setting: to `CCc1nc2c(N)ncc(-c3cnn(C4CCOCC4)c3)c2nc1N[C@@H]1CC[C@H](O)C1` [Compound 191] belongs no more than 10 nM; to `CCc1nc2c(N)ncc(-c3cnn(-c4ccc(C#N)cn4)c3)c2nc1N[C@@H]1CC[C@H](O)C1` [Compound 300], no more than 10 nM.

Still in this assay, the particulars now being: IC50 class, read-out: Inhibitory activity of cell proliferation MV4;11.
Consider `CCc1nc2c(N)ncc(-c3cnn(C4C[C@H]5CC[C@@H](C4)N5)c3)c2nc1N[C@@H]1CC[C@H](O)C1` (single isomer, unassigned) [Compound 162], for which the IC50 lay in the range of 100 to 500 nM.
Consider `CCc1nc2c(N)ncc(-c3cnn(C4C[C@H]5CC[C@@H](C4)N5)c3)c2nc1N[C@@H]1CC[C@H](O)C1` (single isomer, unassigned) [Compound 163], for which the IC50 was 10 to 100 nM.
On the same count and under the same terms, the figure for `CCc1nc2c(N)ncc(-c3cnn(C4C[C@H]5CC[C@@H](C4)N5C)c3)c2nc1N[C@@H]1CC[C@H](O)C1` (single isomer, unassigned) [Compound 165] is no more than 10 nM.

The next assay has as its target T1, FLT3 (Homo sapiens, UniProt P36888).
T1 construct: purchased Carna 08-145
T1 sequence (P36888 27-993): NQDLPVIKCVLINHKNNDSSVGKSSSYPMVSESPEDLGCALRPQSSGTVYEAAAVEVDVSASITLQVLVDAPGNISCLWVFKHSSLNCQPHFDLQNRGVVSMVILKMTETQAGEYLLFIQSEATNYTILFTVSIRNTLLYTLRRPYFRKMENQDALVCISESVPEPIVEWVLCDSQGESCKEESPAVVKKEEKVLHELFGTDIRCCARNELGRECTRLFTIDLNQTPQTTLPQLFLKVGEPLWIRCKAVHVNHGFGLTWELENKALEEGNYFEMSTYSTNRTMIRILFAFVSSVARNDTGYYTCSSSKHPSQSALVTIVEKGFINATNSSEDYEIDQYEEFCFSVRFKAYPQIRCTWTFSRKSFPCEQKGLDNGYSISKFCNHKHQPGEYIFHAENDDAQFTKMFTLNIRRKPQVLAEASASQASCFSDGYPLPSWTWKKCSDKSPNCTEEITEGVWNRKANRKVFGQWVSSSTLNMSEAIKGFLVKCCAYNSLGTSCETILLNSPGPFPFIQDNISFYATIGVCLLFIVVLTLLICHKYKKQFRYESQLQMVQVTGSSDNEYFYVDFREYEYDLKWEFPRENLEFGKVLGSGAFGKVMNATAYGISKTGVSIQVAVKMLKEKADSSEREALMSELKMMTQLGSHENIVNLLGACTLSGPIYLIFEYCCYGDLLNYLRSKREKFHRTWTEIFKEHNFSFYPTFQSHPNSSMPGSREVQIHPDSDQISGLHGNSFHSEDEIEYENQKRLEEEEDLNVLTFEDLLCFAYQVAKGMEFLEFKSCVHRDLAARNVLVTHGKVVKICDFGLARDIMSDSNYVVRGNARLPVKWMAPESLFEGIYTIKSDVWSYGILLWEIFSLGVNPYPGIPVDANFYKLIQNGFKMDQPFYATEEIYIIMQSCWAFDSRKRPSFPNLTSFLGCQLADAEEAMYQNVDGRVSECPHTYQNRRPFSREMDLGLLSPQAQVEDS
As to the kind of experiment: FLT3 kinase in vitro inhibitory activity experiment (Caliper mobility shift, conversion rate). Format: biochemical. Particulars: IC50 class, read-out: Enzyme activity FLT3. The procedure: Biological Test Example 1: FLT3 Kinase In Vitro Inhibitory Activity Experiment
Centrifuge (manufacturer: Eppendorf, model: 5430), microplate reader (manufacturer: Perkin Elmer, model: Caliper EZ Reader II), Echo 550 (manufacturer: Labcyte, model: Echo 550)
1. Kinase Reaction Process
• (1) 1×Kinase buffer was prepared. • (2) Preparation of the serial compound dilutions: the initial stock (the concentration of the tested compound was 1 μM) was diluted by 3-fold into 10 concentrations, and was single-well detected. The compounds were series diluted to solutions of 10 different concentration (100-folds final concentration) in 384-well plates. 250 nl of solution was transferred to each well of 384-well plate by Echo550. 100% DMSO (250 nl) was added to negative control wells and positive control wells respectively. • (3) Kinase solution (2.5 times final concentration) was prepared with 1×Kinase buffer. • (4) 10 μL of kinase solution (2.5 times final concentration) was added to compound wells and positive control wells respectively: 1×Kinase buffer (10 μL) was added to the negative control wells. • (5) The solution was centrifuged at 1000 rpm for 30 seconds, shaked and mixed, and incubated at room temperature for 10 minutes. • (6) The mixed solution of ATP and Kinase substrate 2 (25/15 times final concentration) was prepared with 1×Kinase buffer. • (7) 15 μL of mixed solution ATP and Kinase substrate 2 (25/15 times final concentration) was added to initiated the reaction. • (8) 384 well plate was centrifuged at 1000 rpm for 30 seconds, shaked and mixed, then incubated at room temperature for 30 minutes. • (9) Stop solution (30 μL) was added to stop kinase reaction, and the solution was centrifuged at 1000 rpm for 30 seconds, shaked and mixed. • (10) The conversion rate was read with Caliper EZ Reader II. 2. Data Analysis Formula for Calculation
Wherein: Conversion %_sample is the reading of the sample conversion; Conversion %_min: negative control well.
`CCc1nc2c(N)ncc(-c3cnn(C4C[C@H]5CC[C@@H](C4)N5)c3)c2nc1N[C@@H]1CC[C@H](O)C1` (single isomer, unassigned) [Compound 162]: the IC50 was no more than 10 nM.
`CCc1nc2c(N)ncc(-c3cnn(C4C[C@H]5CC[C@@H](C4)N5)c3)c2nc1N[C@@H]1CC[C@H](O)C1` (single isomer, unassigned) [Compound 163]: the IC50 is no more than 10 nM.
On the same count and under the same terms, to `CCc1nc2c(N)ncc(-c3cnn(C4C[C@H]5CC[C@@H](C4)N5C)c3)c2nc1N[C@@H]1CC[C@H](O)C1` (single isomer, unassigned) [Compound 164] belongs no more than 10 nM.
The same measure, in the same setting: to `CCc1nc2c(N)ncc(-c3cnn(C4C[C@H]5CC[C@@H](C4)N5C)c3)c2nc1N[C@@H]1CC[C@H](O)C1` (single isomer, unassigned) [Compound 165] belongs no more than 10 nM.
On the same count and under the same terms, the figure for `CCc1nc2c(N)ncc(-c3cnn(C4CCC(C)(O)CC4)c3)c2nc1N[C@@H]1CC[C@H](O)C1` (single isomer, unassigned) [Compound 284] is no more than 10 nM.
On to `CCc1nc2c(N)ncc(-c3ccc(N4CCC(N5CCN(C)CC5)CC4)c(S(C)(=O)=O)c3)c2nc1NC1CCOCC1` [Compound 18, 3-ethyl-8-(4-(4-(4-methylpiperazine-1-yl)piperidine-1-yl)-3-(methylsulfyl)phenyl)-N2-(tetrahydro-2H-pyran-4-yl) pyridino [3,4-b] pyrazine-2,5-diamine], for which the IC50 was in the range of 10 to 100 nM.
As to `CCc1nc2c(N)ncc(-c3ccc(N4CCC(N5CCN(C)CC5)CC4)c(C(C)(C)O)c3)c2nc1NC1CCOCC1` [Compound 19, 2-(5-(5-amino-3-ethyl-2-((tetrahydro-2H-pyran-4-yl)amino)pyridino[3,4-b]pyrazine-8-yl)-2-(4-(4-methylpiperazine-1-yl)piperidine-1-yl)phenyl)propan-2-ol], the IC50 is no more than 10 nM.
On the same count and under the same terms, the figure for `COc1cc(-c2cnc(N)c3ncc(NC4CCOCC4)nc23)ccc1N1CCC(N2CCN(C)CC2)CC1` [Compound 25] is 10 to 100 nM; for `CCc1nc2c(N)ncc(-c3ccn(C)c3)c2nc1NC1CCOCC1` [Compound 56] it is 10 to 100 nM.
Same read-out and setting: to `CCc1nc2c(N)ncc(-c3cnn(C)c3)c2nc1NC1CCOCC1` [Compound 57] belongs 10 to 100 nM; to `CCc1nc2c(N)ncc(-c3ccc4c(c3)OCCN4C)c2nc1NC1CCOCC1` [Compound 61], 10 to 100 nM.
With `CCc1nc2c(N)ncc(-c3ccc(N4CCC(N5CCN(C)CC5)CC4)c(OC)c3)c2nc1NC` [Compound 76], the IC50 lay in the range of 10 to 100 nM.
The same measure, in the same setting: to `CCc1nc2c(N)ncc(-c3ccc(N4CCC(N5CCN(C)CC5)CC4)c(OC)c3)c2nc1N[C@H]1CC[C@@H](O)CC1` [Compound 82] belongs no more than 10 nM.
The same measure, in the same setting: to `CCc1nc2c(N)ncc(-c3cnn(CC4CCN(C)CC4)c3)c2nc1NC1CCOCC1` [Compound 137] belongs no more than 10 nM; to `CCc1nc2c(N)ncc(Br)c2nc1N[C@@H]1CC[C@H](O)C1` [Compound 151, (1S, 3R)-3-((5-amino-8-bromo-3-ethylpyridino[3,4-b]pyrazine-2-yl)amino)cyclopentan-1-ol], 100 to 500 nM.
For the compound `CCc1nc2c(N)ncc(-c3cnn(CC4CCNCC4)c3)c2nc1NC1CCOCC1` [Compound 154], the IC50 is no more than 10 nM.
The same measure, in the same setting: to `CCc1nc2c(N)ncc(-c3cnn(C4CCN(c5cc(F)cc(F)c5)CC4)c3)c2nc1N[C@@H]1CC[C@H](O)C1` [Compound 173] belongs no more than 10 nM; to `CCc1nc2c(N)ncc(-c3cnn(C4CCN(CCO)CC4)c3)c2nc1N[C@H]1CCOC1` [Compound 229], no more than 10 nM; to `CCc1nc2c(N)ncc(-c3cnn(C(C)C)c3)c2nc1N[C@H]1CCOC1` [Compound 230], no more than 10 nM.
Take `CCc1nc2c(N)ncc(-c3cnn(C4COC4)c3)c2nc1N[C@H]1CCOC1` [Compound 231]: the IC50 was no more than 10 nM.
On the same count and under the same terms, the figure for `CCc1nc2c(N)ncc(-c3cnn(C4CCN(C5CCN(C)CC5)CC4)c3)c2nc1N[C@@H]1CCOC1` [Compound 250] is no more than 10 nM; for `CCc1nc2c(N)ncc(-c3ccc(N4CCC(N5CCN(C)CC5)CC4)c(OC)c3)c2nc1N[C@H]1CCC[C@@H](O)C1` [Compound 255] it is no more than 10 nM.
The same measure, in the same setting: to `CCc1nc2c(N)ncc(-c3ccc(N4CCC(N5CCN(C)CC5)CC4)c(OC)c3)c2nc1N[C@H]1CCC[C@H](O)C1` [Compound 256] belongs no more than 10 nM.
Still for that read-out and setting: the figure for `CCc1nc2c(N)ncc(-c3cnn(C4CCNCC4)c3)c2nc1N[C@@H]1CCOC1` [Compound 258] is no more than 10 nM.
For the compound `CCc1nc2c(N)ncc(-c3cnn(C4CCNCC4)c3)c2nc1N[C@H]1CCOC1` [Compound 259, (S)-3-ethyl-8-(1-(piperidin-4-yl)-1H-pyrazol-4-yl)-N2-(tetrahydrofuran-3-yl)pyridino[3,4-b]pyrazin-2,5-diamine], the IC50 is no more than 10 nM.
Same read-out and setting: to `CCc1nc2c(Nc3cccnc3)ncc(-c3cnn(C4CCNCC4)c3)c2nc1N[C@@H]1CC[C@H](O)C1` [Compound 262] belongs 10 to 100 nM; to `CCc1nc2c(N)nccc2nc1N[C@@H]1CC[C@H](O)C1` [Compound 263, (1S,3R)-3-((5-amino-3-ethylpyridino[3,4-b]pyrazine-2-yl)amino)cyclopentan-1-ol], greater than 500 nM; to `CCc1nc2c(N)ncc(-c3cnn(C4CCN(C)CC4)c3)c2nc1N(C)CC(C)(C)O` [Compound 264], no more than 10 nM.

The record behind these values is patent US12673947B2 (Cytosinlab Therapeutics Co., Ltd., priority 2020, dated 2026).
